Laboratory results from patent publication US20140079741A1, “INHIBITION AND TREATMENT OF BIOFILMS” (priority 2011, published 2014).
“Also recorded” adds a separate entry of the source.

Assays:
[1] = tested on: C. albicans CAF2 biofilms on implanted catheter fragments; assay: Rat subcutaneous catheter infection model (in vivo biofilm susceptibility); set-up: species or system Candida albicans
Protocol: A rat subcutaneous catheter infection model was used for in vivo biofilm susceptibility studies, in which 6 rats were treated with sterile saline (control, 40 catheters), 6 rats with diclofenac (48 catheters), 5 rats with caspofungin (40 catheters) and 6 rats with a combination of diclofenac and caspofungin (45 catheters).
Diclofenac and caspofungin solutions for intravenous injection were prepared in sterile physiological solution. The administration of diclofenac (3 mg/kg) started immediately after the catheter implant and continued daily up to 9 days. The treatment with caspofungin (3 mg/kg) was initiated after 48 h of in vivo biofilm development and maintained by daily injections for 7 days. Sterile saline was administered to the control group. Further analysis and quantification of the number of cells per individual biofilm was performed as previously described. Statistical analysis was performed using unpaired t-test; differences were considered significant if p<0.05. Data are the means and SEM of 2 independent experiments. Six independent catheters retrieved from each test group were used for scanning electron microscopy (SEM) analyses. Prior to the SEM analysis, each catheter fragment was cut longitudinally through the lumen and subsequently prepared for microscopy as previously described.

[2] = tested on: biofilms of C. albicans CAF2-1; assay: MIC50 against biofilms (XTT reduction assay); assay type: cell-based, Candida albicans; conditions: for MIC50: Candida albicans
Protocol: (§1) Using the same setup as above, WT biofilms grown in the presence or absence of diclofenac (0.5-3 mM or 148-888 μg/mL) were incubated with various concentrations of Caspofungin (0-150 μM) for 24 h, both in the presence or absence of diclofenac. After washing, the remaining living cells within the biofilm was determined by CellTiter-Blue quantification. The MIC50 of caspofungin, diclofenac and the combination of both drugs against pretreated or mature C. albicans biofilms was quantified by XTT reduction assay (Ramage et al.).
(§2) Similar results were obtained by determination of the MIC50 values. The susceptibility testing and determination of minimal inhibitory concentrations (MIC) of diclofenac and caspofungin, and combinations thereof that inhibit fungal growth by 50% (MIC50) were performed according the NCCLS M27-A3 protocol (2008).

[3] = tested on: C. albicans WT CAF2-1 biofilms; assay: Biofilm cell viability by CellTiter-Blue staining; assay type: cell-based, Candida albicans; conditions: 24 h
Protocol: To this end, cultures of the WT CAF2-1 were grown overnight (2*10^8 cells/ml) in YPD (1% yeast extract, 2% peptone, 2% glucose) and washed 3 times in PBS (pH 7.4). After dilution (OD600=0.5) in SC (1% CSM, complete amino acid supplement mixture, 1% YNB, yeast nitrogen base; 2% glucose), the cultures were resuspended (100 μl/well) in a 96well microtiter plate. After 1 h of adhesion, the adherent WT cells were incubated with or without 2 mM (about 500 μg/ml) diclofenac (in DMSO, resulting in final concentration of 2.4% DMSO) and allowed biofilm growth for 16 h in SC. Next, the resulting biofilms were washed with PBS and treated with various concentrations of miconazole (0-500 μM) for 24 h in the absence or presence of diclofenac. After washing, the remaining living cells using the CellTiter-Blue quantification method were determined.
as §1

[4] = tested on: C. albicans biofilms grown on catheters; assay: In vitro biofilm drug susceptibility on polyurethane catheter pieces (CFU); assay type: cell-based, Candida albicans
Protocol: In an alternative setup, in vitro biofilm drug susceptibility assays were performed using serum-coated 1 cm polyurethane catheter pieces (Arrow International Reading) as described previously. Biofilms were grown in RPMI 1640 (pH 7.0) and Candida cells were allowed to adhere to the substrate for 90 min.
Diclofenac (2 mM) was administered during the period of adhesion of C. albicans cells on the catheters and throughout the period of biofilm formation. Catheter fragments containing diclofenac-pretreated or untreated mature biofilms were washed and subsequently incubated with caspofungin (125 μM) or water in the presence or absence of diclofenac (2 mM) for 24 h, respectively. Biofilms were washed and quantified by determination of colony forming units. Untreated biofilms were considered as controls. Statistical analysis was performed using unpaired t-test; differences were considered significant if p<0.05. Data are the mean and SEM of five independent experiments using at least two catheters per test group.
Similar results were obtained when assessing the antibiofilm effect of caspofungin against mature biofilms, which were formed on diclofenac-soaked catheter fragments versus those formed on unsoaked catheter fragments.

[5] = tested on: planktonic cultures of C. albicans CAF2-1; assay: MIC50 against planktonic cultures (NCCLS M27-A3); assay type: cell-based, Candida albicans; conditions: Candida albicans, planktonic
Protocol: as §2

[6] = tested on: C. albicans biofilm cells; conditions: caspofungin doses 0.05 μM-0.5 μM, background statement; cited from earlier work
C. albicans WT biofilms = assay: Biofilm survival by CFU determination (plating on YPD); assay type: cell-based, Candida albicans; conditions: WT biofilms grown with 500 μg/ml diclofenac, AmB 2.5-10 μg/ml, 24 h
Protocol: Using the same setup as in Example 2, WT biofilms grown in the presence or absence of diclofenac (500 μg/ml) or Δefg1 biofilms were incubated with various concentrations of Amphotericin B (AmB) (2.5-10 μg/ml) for 24 h, both in the presence or absence of diclofenac. After washing, the remaining living cells within the biofilm were determined by plating on YPD and determination of colony forming units (CFUs).

[7] = tested on: C. albicans biofilm cells; assay: Intracellular accumulation of miconazole in biofilm cells (quantitative HPLC); assay type: cell-based, Candida albicans
Protocol: Quantitative analysis of intracellular accumulation of miconazole in C. albicans biofilm cells. […] After incubation, treated biofilms were resuspended and pooled per 5 wells. After centrifugation, samples were taken for cell counting using a Thoma counting chamber, whereafter the pellet was resuspended in 300 μl 70% acetonitrile/30% PBS. Miconazole concentration in the cell lysates was determined using HPLC and normalized to the number of cells in the pellet. Statistical analysis was performed using unpaired student t test; differences were considered significant if p<0.05.
The intracellular accumulation of miconazole in Δefg1 and WT biofilms upon miconazole treatment was determined to investigate whether the increased miconazole sensitivity of Δefg1 biofilms is due to an increased uptake or decreased efflux of miconazole. To this end, 16 h-old Δefg1 and WT C. albicans biofilms were treated with different concentrations of miconazole for 4 h and the concentration of miconazole in the biofilm cells via HPLC analysis was determined.
The intracellular accumulation of miconazole in WT biofilms grown in the prescence or absence of 500 μg/ml diclofenac upon miconazole treatment was determined to investigate whether the increased miconazole sensitivity of diclofenac-treated WT biofilms is due to an increased uptake or decreased efflux of miconazole. […]

[8] = tested on: C. albicans biofilms of wild type CAF2; assay: Biofilm activity assay, crystal violet quantification (BEC50); assay type: cell-based, Candida albicans
Protocol: (§3) Biofilm activity assay. The activity of miconazole and fluconazole against 16 h-old C. albicans biofilms (10^7 cells/well) was assessed using the crystal violet quantification method. The biofilm-eradicating capacity of a compound was determined as the minimal concentration resulting in 50% eradication of the biofilm (BEC50).
(§4) Miconazole sensitivity was analyzed of biofilms of C. albicans homozygous null mutants affected in genes involved in the cyclic AMP signaling pathway, namely Δcdc35, Δras1, Δpde1, Δpde2 and Δefg1. To this end, the inventors incubated 16 h-old C. albicans biofilms with various concentrations of miconazole for 24 h and determined the remaining biomass using the crystal violet quantification method.
To this end, cultures of the WT CAF2-1 were grown overnight (2×10^8 cells/ml) in YPD (1% yeast extract, 2% peptone, 2% glucose) and washed 3 times in PBS (pH 7.4). After dilution (OD600=0.5) in SC (1% CSM, complete amino acid supplement mixture, 1% YNB, yeast nitrogen base; 2% glucose), the cultures were resuspended (100 μl/well) in a 96well microtiter plate. After 1 h of adhesion, the adherent WT cells were incubated with or without 500 μg/ml diclofenac and allowed biofilm formation for 16 h. Next, the resulting biofilms were washed with PBS and treated with various concentrations of miconazole for 24 h in the absence or presence of diclofenac. After washing, the remaining biomass was determined using the crystal violet quantification method.
The biofilm-eradicating capacity of a compound was determined as the minimal concentration resulting in 50% eradication of the biofilm (BEC50).

[9] = tested on: C. albicans reintegrant Δefg1(EFG1) biofilms; assay: as above; assay type: cell-based, Candida albicans; conditions: for sensitivity of biofilms to miconazole: Δefg1(EFG1)
Protocol: as §3, §4

[10] = tested on: C. albicans Δefg1 biofilms; assay: as above; assay type: cell-based, Candida albicans
Protocol: as §3, §4

[11] = rats, caspofungin 3 mg/kg 7 days with 48 h diclofenac-pretreatment and further diclofenac 3 mg/kg

With `CC[C@H](C)C[C@H](C)CCCCCCCCC(=O)N[C@H]1C[C@@H](O)[C@@H](NCCN)NC(=O)[C@@H]2[C@@H](O)CCN2C(=O)[C@H]([C@H](O)CCN)NC(=O)[C@H]([C@H](O)[C@@H](O)c2ccc(O)cc2)NC(=O)[C@@H]2C[C@@H](O)CN2C(=O)[C@H]([C@@H](C)O)NC1=O` [caspofungin] the “sterile catheter fragments retrieved” value ([1]; rats treated with both caspofungin and diclofenac) was 29%, the “number of sterile catheters retrieved” value ([1]; rats treated with both caspofungin and diclofenac (45 catheters)) was “thirteen” and the “sterile catheter fragments retrieved” value ([1]; rats treated with caspofungin alone) was 7.5%. For the same compound, the “number of sterile catheters retrieved” value ([1]; rats treated with caspofungin alone (40 catheters)) was “three”, the “reduction in biofilm cell numbers compared to control treatment” value [1, 11] was “more than 15 fold” and the “reduction in cell numbers compared to caspofungin treatment alone” value [1, 11] was “more than 5 fold”. The “reduction in the number of surviving biofilm cells compared to control treatment” value ([1]; rats, caspofungin alone 3 mg/kg daily injections for 7 days) was “more than 10 fold”, the “biofilm structure by scanning electron microscopy” value ([1]; rats, caspofungin without diclofenac-pretreatment) was “biofilm cells formed in minor clusters” and the “biofilm structure by scanning electron microscopy” value ([1]; rats, diclofenac and caspofungin together) was “only scattered yeast cells and hyphae were observed”. It also gave an MIC50 ([2]; biofilms, caspofungin alone) of 6 µM, an MIC50 ([2]; biofilms, caspofungin in combination with 2 mM diclofenac-pretreatment) of less than 0.75 µM and an MIC50 ([2]; coincubation of mature biofilms with caspofungin and 2 mM diclofenac) of 1.5 µM. For the same compound, the “MIC50 against biofilms relative to MIC50 against planktonic cultures” value ([2]; caspofungin alone) was “at least 100 times”, the FICI ([2]; diclofenac coincubation/caspofungin combination) was 0.25 and the FICI ([2]; diclofenac pretreatment/caspofungin combination) was 0.125. The “drop of % survival compared to diclofenac-untreated biofilms” value ([3]; WT biofilms grown with 0.5-3 mM diclofenac, various caspofungin concentrations) was “about 5 fold”, the “reduction of the number of biofilm cells compared to control treatment” value ([4]; 125 μM caspofungin alone, 24 h, untreated/unsoaked catheters) was “did not result in a statistically significant reduction; also recorded: did not display significant activity” and the “reduction of the number of in vitro biofilm cells compared to untreated biofilms” value ([4]; 2 mM diclofenac during biofilm growth, then 125 μM caspofungin 24 h) was “at least 12 fold”. For the same compound, the “reduction of the number of biofilm cells compared to control treatment” value ([4]; biofilms grown on diclofenac-soaked catheters, 125 μM caspofungin) was “at least 17 fold”, the MIC50 ([5]; RPMI 1640, caspofungin alone) was less than 0.05 µM and the MIC50 ([5]; combination of caspofungin and 2 mM diclofenac) was 0.23 µM. For the same compound, the “metabolic activity of C. albicans biofilm cells” value [6] was “do not decrease the metabolic activity”.
For `C[C@@H]1[C@H](O)[C@@H](C)/C=C/C=C/C=C/C=C/C=C/C=C/C=C/[C@H](O[C@@H]2O[C@H](C)[C@@H](O)[C@H](N)[C@@H]2O)C[C@@H]2O[C@](O)(C[C@@H](O)C[C@@H](O)[C@H](O)CC[C@@H](O)C[C@@H](O)CC(=O)O[C@H]1C)C[C@H](O)[C@H]2C(=O)O` [Amphotericin B], the “drop of % survival compared to diclofenac-untreated biofilms” value (C. albicans WT biofilms) was “about 5 fold”.
For `Clc1ccc(COC(Cn2ccnc2)c2ccc(Cl)cc2Cl)c(Cl)c1` (stereo not shown) [miconazole], the “intracellular miconazole levels in diclofenac-treated compared to untreated WT biofilm cells” value ([7]; 62-250 μg/ml miconazole and 500 μg/ml diclofenac) was “significantly increased”, the “intracellular miconazole levels in Δefg1 biofilm cells compared to WT biofilm cells” value ([7]; 62-250 μg/ml miconazole, 4 h) was “significantly increased” and the “sensitivity to miconazole compared to untreated WT biofilms” value ([3]; biofilms treated with 2 mM diclofenac, miconazole 0-500 μM) was “increased sensitivity”. The “BEC50 (minimal concentration resulting in 50% eradication of the biofilm)” value ([8]; WT CAF2, 16 h-old biofilms, 24 h treatment, no diclofenac) was greater than 250 µg/mL, the BEC50 ([8]; WT biofilms grown and treated in presence of 500 μg/ml diclofenac) was 46 µg/mL and the “sensitivity of biofilms to miconazole” value ([8]; WT, high miconazole dose 250 μg/ml) was “resistant”. The BEC50 ([9]; reintegrant Δefg1(EFG1), 16 h-old biofilms, 24 h treatment) was 100 µg/mL, the “sensitivity of biofilms to miconazole” value ([9]; high miconazole dose 250 μg/ml) was “as sensitive to miconazole as Δefg1 biofilms” and the “sensitivity of biofilms to miconazole” value ([9]; moderate miconazole doses 62-125 μg/ml) was “intermediate miconazole sensitivity phenotype”. For the same compound, the BEC50 ([10]; Δefg1, 16 h-old biofilms, 24 h treatment) was 25 µg/mL and the “sensitivity of biofilms to miconazole” value ([10]; Δefg1, low miconazole dose 31 μg/ml) was “sensitive”.
